Measurements published in ChEMBL document CHEMBL5500405, “Design and Synthesis of Clinical Candidate PF-06852231 (CVL-231): A Brain Penetrant, Selective, Positive Allosteric Modulator of the M4 Muscarinic Acetylcholine Receptor” (J Med Chem, 2024).

Columns and labels:
[1] = Lipophilicity, logD of compound by shake flask method; format: physicochemical; details: octanol/water
[2] = Stability of compound at pH 1 assessed as half-life by 1H NMR assay; format: physicochemical; details: buffer
[3] = Unbound plasma concentration in mouse at 1 mg/kg, sc; format: ADME, organism-based; details: in vivo
[4] = Unbound plasma concentration in mouse at […], sc; format: ADME, organism-based; details: in vivo, dose 3.2 mg/kg
[5] = Unbound plasma concentration in mouse at 10 mg/kg, sc; format: ADME, organism-based; details: in vivo
[6] = Unbound plasma concentration in mouse at 32 mg/kg, sc; format: ADME, organism-based; details: in vivo
[7] = Unbound brain concentration in mouse at 1 mg/kg, sc; format: ADME, organism-based; details: in vivo
[8] = Unbound brain concentration in mouse at […], sc; format: ADME, organism-based; details: in vivo, dose 3.2 mg/kg
[9] = Unbound brain concentration in mouse at 10 mg/kg, sc; format: ADME, organism-based; details: in vivo
[10] = Unbound brain concentration in mouse at 32 mg/kg, sc; format: ADME, organism-based; details: in vivo

In the case of Cc1cc(C)c2c(n1)CN(C(=O)CC1CC1)C2, the logD [1] is reported as 1.84.
Cc1cc(C)c2c(n1)CN(C(=O)CC1CN(c3ccccc3)C1)C2 showed a half-life [2] of 9 min.
For Cc1cc(C)c2c(n1)CN(C(=O)CC1CN(c3ccnc(C(F)(F)F)c3)C1)C2 [EMRACLIDINE], the “Cp(f)” value [3] was 26 nM, the “Cp(f)” value [4] was 47 nM and the “Cp(f)” value [5] was 219 nM. For the same compound, the “Cp(f)” value [6] was 480 nM, the “Drug uptake(free)” value [7] was 13 nM and the “Drug uptake(free)” value [8] was 22 nM. The “Drug uptake(free)” value [9] was 105 nM and the “Drug uptake(free)” value [10] was 240 nM.
